US20220348966A1, “SYSTEM AND METHOD FOR INCREASED ALCOHOL TOLERANCE AND PRODUCTION IN YEAST” (The Trustees of Princeton University, priority 2019, published 2022)
Where two headings read alike, the source gives them in different places.

Tests used:
gln3Δ strain [1] = type: cell-based, S. cerevisiae; details: for tolerance compared to wild type strain: liquid medium
Excerpt: (§1) The six hypertolerant strains were examined in liquid medium containing heavy alcohols. In this example, the liquid medium contained 1.5% or 1.6% isobutanol, or 8% ethanol.
Tolerance of the gln3Δ strain to other alcohols was explored by measuring its growth in liquid medium containing methanol, 1-propanol, 1-butanol, 2-butanol, tert-butanol, 1-pentanol, 2-methyl-1-butanol, isopentanol, or 1-hexanol.

avt3Δ strain = type: cell-based, S. cerevisiae; details: FIG. 6
Excerpt: as §1

gnp1Δ strain = type: cell-based, S. cerevisiae; details: FIG. 6
Excerpt: as §1

vps55Δ strain = type: cell-based, S. cerevisiae; details: FIG. 6
Excerpt: as §1

ydr391cΔ strain = type: cell-based, S. cerevisiae; details: FIG. 6
Excerpt: as §1

gcn3Δ strain = type: cell-based, S. cerevisiae
Protocol: (§2) Utilizing the LC50 results, one can screen a gene deletion library (here, the BY4741 library [Giaever et al., 2002; Winzeler et al., 1999]) for changes in cell growth in liquid SC medium containing the heavy alcohol at an amount that is 0.1% or 0.2% (v/v) less than the LC50. Here, 1.4% (v/v) isobutanol was used. […] To quantify these phenotypes, a tolerance factor (TF) was defined as the ratio of the OD600 of cells grown with isobutanol in the medium after 24 h, divided by the OD600 of cells grown in the absence of isobutanol for the same amount of time. Thus, one can classify deletion strains as having increased sensitivity or tolerance to isobutanol based on the comparison of their TF values to that of the wild type strain in, e.g., 1.4% isobutanol measured during the screen. […] To assess the specificity of changes in tolerance to isobutanol, the growth of these selected strains in media containing ethanol can also be measured: 8% for sensitive strains or 9% for tolerant strains.
as §1

yeast = details: cited from earlier work
zwf1Δ strain = type: cell-based, S. cerevisiae; details: for sensitivity / cell growth in presence of alcohol compared to wild type: FIG. 5, various alcohols
Protocol: (§3) Growth of 19 hypersensitive strains was measured in liquid SC medium containing 0.6%, 1.0%, or 1.4% isobutanol, or 8% ethanol. These growth experiments were initiated at an OD600 of 0.1, unlike in previous screens, which started with much smaller inoculums (from a 96-pin replicator).
(§4) The sensitivity of gnd1Δ and zwf1Δ strains to other alcohols including methanol, 1-propanol, 1-butanol, 2-butanol, tert-butanol, 1-pentanol, 2-methyl-1-butanol, isopentanol, and 1-hexanol was explored.

gnd1Δ strain = type: cell-based, S. cerevisiae; details: for sensitivity / cell growth in presence of alcohol compared to wild type: FIG. 5, various alcohols
Protocol: as §3, §4

BY4741 wild type strain = details: for cell growth (OD600): 24 h
Protocol: The Tolerance Factor (TF) is defined as the ratio of the OD600 of cells grown with the heavy alcohol in the medium after 24 h, divided by the OD600 of cells grown in the absence of the heavy alcohol for the same amount of time.
A first example is for the identification of the LC50 (lethal concentration for 50% of cells) of isobutanol for the BY4741 wild type strain of S. cerevisiae, the strain from which a gene deletion library was developed (Giaever et al., 2002; Winzeler et al., 1999). […] The cell growth of BY4741 in synthetic complete (SC) liquid medium containing concentrations of isobutanol ranging from 0.0% to 1.8% (v/v) was monitored by measuring the optical density at 600 nm (OD600) after 24-h cultivation.
as §2
For most screens and analyses of alcohol tolerance, wild type and deletion strains can be cultured in synthetic complete (SC) medium made inhouse (see Table 1) at 30° C., and 2% glucose. Strains overexpressing PPP genes can be cultured in SC medium lacking uracil (SC-Ura) made inhouse.

nha1Δ strain = details: 8% ethanol
Protocol: as §3, §4

gln3Δ strain [2] = assay: Growth on SC agar medium; type: cell-based, S. cerevisiae; details: 2.7% isobutanol
Excerpt: The gln3Δ strain can grow on SC agar medium containing 2.7% isobutanol.

BY4741 = assay: Serial dilutions spotted onto SC agar plates; type: cell-based, S. cerevisiae; details: SC agar containing 2.4% isobutanol
Excerpt: To evaluate isobutanol growth inhibition on solid medium, serial dilutions of BY4741 were spotted onto SC agar plates containing 0.0% to 3.0% isobutanol. […] The higher LC50 determined from agar plates may be the result of higher cell tolerance to isobutanol in solid media; however, it could also reflect the difficulty in accurately preparing solid media with specific isobutanol concentrations due to isobutanol evaporation during the pouring of hot agar.

trp2Δ strain = assay: Gene deletion library screen for isobutanol sensitivity; type: cell-based, S. cerevisiae; details: second screen, 0.6% and 1.2% isobutanol
Excerpt: (§5) Here, 1.4% (v/v) isobutanol was used.
(§6) Out of the 164 sensitive strains, the 46 strains that continue to display increased sensitivity to isobutanol at lower concentrations (TF <0.5 in 0.6% isobutanol or TF <0.1 in 1.2% isobutanol) can be categorized as hypersensitive. These strains are highlighted in gray in FIGS. 2A-2C. Among the 36 strains with increased tolerance, 6 continue to display increased tolerance (TF >0.4) in 1.5% isobutanol, which we categorize as hypertolerant (FIG. 3).
(§7) Next, a Gene Ontology (GO) enrichment analysis of genes deleted in the 164 most sensitive and 36 most tolerant strains can be performed. […] In fact, five strains harboring deletions in the TRP gene family, encoding enzymes in tryptophan biosynthesis, show increased isobutanol sensitivity (with trp2Δ, trp3Δ, and trp5Δ being hypersensitive strains). One can examine the increased sensitivity to isobutanol caused by TRP1 deletion because it is an auxotrophic marker in commonly used strains, such as CEN.PK- and SEY6210-derived strains. […] Furthermore, after repairing the TRP1 allele in CEN.PK2-1C and SEY6210, wild-type (BY4741) levels of isobutanol tolerance are recovered.

trp5Δ strain = assay: as above; type: cell-based, S. cerevisiae; details: second screen, 0.6% and 1.2% isobutanol
Excerpt: as §5, §6, §7

trp3Δ strain = assay: as above; type: cell-based, S. cerevisiae; details: second screen, 0.6% and 1.2% isobutanol
Excerpt: as §5, §6, §7

pep12Δ strain = assay: Growth of hypersensitive strains in liquid SC medium; type: cell-based, S. cerevisiae; details: 0.6% isobutanol, initial OD600 0.1
vps34Δ strain = assay: as above; type: cell-based, S. cerevisiae; details: 0.6% isobutanol, initial OD600 0.1
gcn4Δ strain = assay: Gene deletion library screen, tolerance factor in liquid SC medium; type: cell-based, S. cerevisiae; details: 1.4% isobutanol
Excerpt: as §5

[3] = 0.6% isobutanol, initial OD600 0.1

In the case of `CCC(C)CO` (stereo not shown) [2-methyl-1-butanol], the “OD600 relative to wild type strain” value (gln3Δ strain [1]; 0.55% 2-methyl-1-butanol, FIG. 7) is reported as 11.4 fold and the “tolerance compared to wild type strain” value (gln3Δ strain [1]; FIG. 7) is reported as “dramatically enhanced tolerance”.
With `CCO` [Ethanol, ethanol] the “sensitivity compared to wild type strain” value (avt3Δ strain; 8% ethanol) was “at least as sensitive”, the “sensitivity compared to wild type strain” value (gnp1Δ strain; 8% ethanol) was “at least as sensitive” and the “sensitivity compared to wild type strain” value (vps55Δ strain; 8% ethanol) was “at least as sensitive”. The “sensitivity compared to wild type strain” value (ydr391cΔ strain; 8% ethanol) was “at least as sensitive”, the “sensitivity compared to wild type strain” value (gcn3Δ strain; 8% ethanol, FIG. 6) was “at least as sensitive” and the ethanol concentration endured (yeast; S. cerevisiae) was ≤ 18 % (v/v). For the same compound, the “sensitivity compared to wild type strain” value (zwf1Δ strain; 8% ethanol) was “no more sensitive”, the “sensitivity / cell growth in presence of alcohol compared to wild type” value (zwf1Δ strain) was “neither strain demonstrates significantly increased sensitivity” and the “sensitivity compared to wild type strain” value (gnd1Δ strain; 8% ethanol) was “no more sensitive”. For the same compound, the “sensitivity / cell growth in presence of alcohol compared to wild type” value (gnd1Δ strain) was “neither strain demonstrates significantly increased sensitivity”, the “Tolerance Factor” value (BY4741 wild type strain; 8.0% ethanol) was 0.31 and the “sensitivity compared to wild type strain” value (nha1Δ strain) was “no more sensitive”. For the same compound, the “sensitivity compared to wild type strain” value (gln3Δ strain [1]; 8% ethanol, FIG. 6) was “at least as sensitive” and the “tolerance compared to wild type strain” value (gln3Δ strain [1]; FIG. 7) was “does not statistically increase tolerance”.
In the case of `CCC(C)O` (stereo not shown) [Example 2-butanol, 2-butanol], the “tolerance compared to wild type strain” value (gln3Δ strain [1]; FIG. 7) is reported as “smaller, but statistically significant, increase in tolerance”.
With `CC(C)CCO` [isopentanol, 3-methyl-1-butanol] the “tolerance compared to wild type strain” value (gln3Δ strain [1]; FIG. 7) was “dramatically enhanced tolerance”.
With `CC(C)(C)O` [tert-butanol] the “tolerance compared to wild type strain” value (gln3Δ strain [1]; FIG. 7) was “dramatically enhanced tolerance”.
In the case of `CCCCCO` [Example 1-pentanol, 1-pentanol], the “tolerance compared to wild type strain” value (gln3Δ strain [1]; FIG. 7) is reported as “does not statistically increase tolerance”.
With `CCCCO` [Example 1-butanol, 1-butanol] the “tolerance compared to wild type strain” value (gln3Δ strain [1]; FIG. 7) was “does not statistically increase tolerance”.
For `CCCO` [Example 1-propanol, 1-propanol], the “sensitivity / cell growth in presence of alcohol compared to wild type” value (zwf1Δ strain) was “neither strain demonstrates significantly increased sensitivity”, the “sensitivity / cell growth in presence of alcohol compared to wild type” value (gnd1Δ strain) was “neither strain demonstrates significantly increased sensitivity” and the “tolerance compared to wild type strain” value (gln3Δ strain [1]; FIG. 7) was “does not statistically increase tolerance”.
With `CO` [methanol] the “sensitivity / cell growth in presence of alcohol compared to wild type” value (zwf1Δ strain) was “neither strain demonstrates significantly increased sensitivity”, the “sensitivity / cell growth in presence of alcohol compared to wild type” value (gnd1Δ strain) was “neither strain demonstrates significantly increased sensitivity” and the “tolerance compared to wild type strain” value (gln3Δ strain [1]; FIG. 7) was “does not statistically increase tolerance”.
With `CCCCCCO` [Example 1-hexanol, 1-hexanol] the “tolerance compared to wild type strain” value (gln3Δ strain [1]; FIG. 7) was “does not statistically increase tolerance”.
In the case of `CC(C)CO` [Isobutanol, 2-methyl-1-propanol], the “growth on SC agar medium” value (gln3Δ strain [2]) is reported as “can grow”, the “cell growth on agar plates” value (BY4741) is reported as “still observable but noticeably inhibited” and the “growth compared to wild type” value (avt3Δ strain; 1.5% isobutanol) is reported as “grow better than the wild type”. The “growth compared to wild type” value (gnp1Δ strain; 1.5% isobutanol) was “grow better than the wild type”, the “tolerance compared to wild type” value (gnp1Δ strain; 1.6% isobutanol) was “enhanced tolerance” and the “growth compared to wild type” value (vps55Δ strain; 1.5% isobutanol) was “grow better than the wild type”. The “tolerance compared to wild type” value (vps55Δ strain; 1.6% isobutanol) was “enhanced tolerance”, the “growth compared to wild type” value (ydr391cΔ strain; 1.5% isobutanol) was “grow better than the wild type” and the “Tolerance Factor” value (gcn3Δ strain; 1.4% isobutanol) was 0.98. For the same compound, the “growth compared to wild type” value (gcn3Δ strain; 1.5% isobutanol, FIG. 6) was “grow better than the wild type”, the “tolerance compared to wild type” value (gcn3Δ strain; 1.6% isobutanol, FIG. 6) was “enhanced tolerance” and the “toxicity for yeast relative to ethanol” value (yeast) was 10 times. The “Tolerance Factor” value (zwf1Δ strain; [3]) was “less than 0.3”, the “Tolerance Factor” value (gnd1Δ strain; [3]) was “less than 0.3” and the “Tolerance Factor” value (BY4741 wild type strain; 0.6% isobutanol) was 0.92. The “Tolerance Factor” value (BY4741 wild type strain; 1.2% isobutanol) was 0.72, the “Tolerance Factor” value (BY4741 wild type strain; 1.4% isobutanol) was 0.38 and the “Tolerance Factor” value (BY4741 wild type strain; 1.5% isobutanol) was 0.19. For the same compound, the “Tolerance Factor” value (BY4741 wild type strain; 1.6% isobutanol) was 0.11, the “LC50 (lethal concentration for 50% of cells)” value (BY4741 wild type strain; SC liquid medium, OD600 after 24-h cultivation) was ~1.5 % (v/v) and the “cell growth (OD600)” value (BY4741 wild type strain; isobutanol 1.4% and 1.5%) was “moderate inhibition”. For the same compound, the “cell growth (OD600)” value (BY4741 wild type strain; isobutanol concentrations above 1.6%) was “significantly inhibited”, the “cell growth (OD600)” value (BY4741 wild type strain; isobutanol concentrations below 1.3%) was “marginally affected” and the isobutanol sensitivity class (trp2Δ strain) was “hypersensitive (TF <0.5 in 0.6% isobutanol or TF <0.1 in 1.2% isobutanol)”. For the same compound, the isobutanol sensitivity class (trp5Δ strain) was “hypersensitive (TF <0.5 in 0.6% isobutanol or TF <0.1 in 1.2% isobutanol)”, the isobutanol sensitivity class (trp3Δ strain) was “hypersensitive (TF <0.5 in 0.6% isobutanol or TF <0.1 in 1.2% isobutanol)” and the “Tolerance Factor” value (pep12Δ strain) was “less than 0.3”. For the same compound, the “growth compared to wild type” value (gln3Δ strain [1]; 1.5% isobutanol, FIG. 6) was “grow better than the wild type”, the “tolerance compared to wild type” value (gln3Δ strain [1]; 1.6% isobutanol, FIG. 6) was “enhanced tolerance” and the “increase in isobutanol tolerance compared to wild type” value (gln3Δ strain [1]; FIG. 7) was 4.04 fold. The “tolerance compared to wild type strain” value (gln3Δ strain [1]; FIG. 7) was “dramatically enhanced tolerance”, the “Tolerance Factor” value (vps34Δ strain) was “less than 0.3” and the “Tolerance Factor” value (gcn4Δ strain) was 0.86.
